Reference: patent US9493446B2, “Orexin receptor antagonists which are [ortho bi-(hetero-)aryl]-[2-(meta bi-(hetero-)aryl)-pyrrolidin-1-yl]-methanone derivatives” (Actelion Pharmaceuticals Ltd, priority 2012, dated 2016)
Where two headings read alike, the source gives them in different places.

Legend:
human orexin-2 receptor = human orexin-2 receptor (Homo sapiens (Human), UniProt O43614); experiment: Intracellular calcium measurement (FLIPR), CHO cells expressing human orexin-2 receptor, 3 nM orexin-A; format: cell-based; conditions: read-out: IC50 OX2
Sequence of human orexin-2 receptor (O43614 whole entry): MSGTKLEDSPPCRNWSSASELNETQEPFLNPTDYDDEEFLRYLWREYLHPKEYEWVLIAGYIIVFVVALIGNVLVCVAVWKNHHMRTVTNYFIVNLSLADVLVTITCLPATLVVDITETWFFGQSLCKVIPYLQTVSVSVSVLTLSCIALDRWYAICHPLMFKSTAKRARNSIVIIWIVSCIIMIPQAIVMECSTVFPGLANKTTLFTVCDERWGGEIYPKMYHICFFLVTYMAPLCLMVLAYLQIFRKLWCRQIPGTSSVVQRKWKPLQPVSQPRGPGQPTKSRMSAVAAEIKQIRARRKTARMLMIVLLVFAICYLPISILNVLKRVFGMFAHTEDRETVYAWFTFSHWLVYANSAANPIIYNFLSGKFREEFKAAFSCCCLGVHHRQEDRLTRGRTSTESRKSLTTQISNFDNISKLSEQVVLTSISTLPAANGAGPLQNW
Outline: (§1)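 Antagonist is added 120 min before agonist. Fluo-4 AM-loaded CHO cells carry human orexin-1 or orexin-2 receptor, and calcium is read by FLIPR.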

orexin-1 = orexin-1 (Homo sapiens (Human), UniProt O43613); experiment: Intracellular calcium measurement (FLIPR), CHO cells expressing human orexin-1 receptor, 3 nM orexin-A; format: cell-based; conditions: read-out: IC50 OX1
Sequence of orexin-1 (O43613 whole entry): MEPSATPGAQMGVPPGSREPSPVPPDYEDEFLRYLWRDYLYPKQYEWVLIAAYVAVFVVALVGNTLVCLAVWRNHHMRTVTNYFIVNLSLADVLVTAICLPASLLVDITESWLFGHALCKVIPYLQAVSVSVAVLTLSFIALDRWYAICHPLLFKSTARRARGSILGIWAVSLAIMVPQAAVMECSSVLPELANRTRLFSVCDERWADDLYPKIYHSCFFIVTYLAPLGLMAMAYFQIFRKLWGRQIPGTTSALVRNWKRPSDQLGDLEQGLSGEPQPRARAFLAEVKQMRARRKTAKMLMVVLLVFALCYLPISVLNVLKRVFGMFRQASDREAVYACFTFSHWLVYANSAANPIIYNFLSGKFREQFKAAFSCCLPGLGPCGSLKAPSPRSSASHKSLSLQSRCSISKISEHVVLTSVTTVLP
Outline: as §1

[1] = CHO cells expressing human orexin-2 receptor, FLIPR, 3 nM orexin-A, geometric mean if determined several times
[2] = CHO cells expressing human orexin-1 receptor, FLIPR, 3 nM orexin-A, geometric mean if determined several times

| SMILES | IC50 (human orexin-2 receptor; [1]) [nM] | IC50 (orexin-1; [2]) [nM] | IC50 (human orexin-2 receptor) [nM] | IC50 (orexin-1) [nM] |
| --- | --- | --- | --- | --- |
| Cc1ccc(-n2nccn2)c(C(=O)N2CCC[C@H]2c2nnc(-c3cccc(F)c3C)[nH]2)c1 [compound 494, {(S)-2-[5-(3-Fluoro-2-methyl-phenyl)-4H-[1,2,4]triazol-3-yl]-pyrrolidin-1-yl}-(5-methyl-2-[1,2,3]triazol-2-yl-phenyl)-methanone] | 27 | 847 |  |  |
| CCOc1ccccc1-c1nnc([C@@H]2CCCN2C(=O)c2cc(C)ccc2-n2nccn2)[nH]1 [compound 495, {(S)-2-[5-(2-Ethoxy-phenyl)-4H-[1,2,4]triazol-3-yl]-pyrrolidin-1-yl}-(5-methyl-2-[1,2,3]triazol-2-yl-phenyl)-methanone] | 38 | 39 |  |  |
| CCOc1ncccc1-c1nnc([C@@H]2CCCN2C(=O)c2cc(C)ccc2-n2nccn2)[nH]1 [compound 496, {(S)-2-[5-(2-Ethoxy-pyridin-3-yl)-4H-[1,2,4]triazol-3-yl]-pyrrolidin-1-yl}-(5-methyl-2-[1,2,3]triazol-2-yl-phenyl)-methanone] | 50 | 57 |  |  |
| COc1c(F)cccc1-c1nnc([C@@H]2CCCN2C(=O)c2cc(C)ccc2-n2nccn2)[nH]1 [compound 497, {(S)-2-[5-(3-Fluoro-2-methoxy-phenyl)-4H-[1,2,4]triazol-3-yl]-pyrrolidin-1-yl}-(5-methyl-2-[1,2,3]triazol-2-yl-phenyl)-methanone] | 46 | 49 |  |  |
| Cc1cc(-n2nccn2)c(C(=O)N2CCC[C@H]2c2nnc(-c3ccccc3OC(F)(F)F)[nH]2)cc1Cl [compound 500] | 2 | 8 |  |  |
| Cc1ccc(C(=O)N2CCC[C@H]2c2nnc(-c3ccccc3OC(F)(F)F)[nH]2)c(-n2nccn2)c1 [compound 501, (4-Methyl-2-[1,2,3]triazol-2-yl-phenyl)-{(S)-2-[5-(2-trifluoromethoxy-phenyl)-4H-[1,2,4]triazol-3-yl]-pyrrolidin-1-yl}-methanone] | 4 | 27 |  |  |
| O=C(c1ccccc1-n1nccn1)N1CCC[C@H]1c1nnc(-c2ccccc2OC(F)(F)F)[nH]1 [compound 503, (2-[1,2,3]Triazol-2-yl-phenyl)-{(S)-2-[5-(2-trifluoromethoxy-phenyl)-4H-[1,2,4]triazol-3-yl]-pyrrolidin-1-yl}-methanone] | 27 | 156 |  |  |
| O=C(c1cc(Cl)ccc1-n1nccn1)N1CCC[C@H]1c1nnc(-c2ccccc2OC(F)(F)F)[nH]1 [compound 504] |  | 104 | 5 |  |
| Cc1nc(C(=O)N2CCC[C@H]2c2nnc(-c3ccccc3OC(F)(F)F)[nH]2)c(-c2ccccc2)s1 [compound 506, (2-Methyl-5-phenyl-thiazol-4-yl)-{(S)-2-[5-(2-trifluoromethoxy-phenyl)-4H-[1,2,4]triazol-3-yl]-pyrrolidin-1-yl}-methanone] | 116 | 171 |  |  |
| O=C(c1ccccc1-c1ccccc1)N1CCC[C@H]1c1nnc(-c2ccccc2OC(F)(F)F)[nH]1 [compound 508, Biphenyl-2-yl-{(S)-2-[5-(2-trifluoromethoxy-phenyl)-4H-[1,2,4]triazol-3-yl]-pyrrolidin-1-yl}-methanone] | 84 | 239 |  |  |
| COc1cc(C(=O)N2CCC[C@H]2c2nnc(-c3ccccc3OC(F)(F)F)[nH]2)c(-n2nccn2)cc1Cl [compound 509] | 3 | 22 |  |  |
| CCc1ccccc1-c1nnc([C@@H]2CCCN2C(=O)c2cc(C)ccc2-n2nccn2)[nH]1 [compound 512, {(S)-2-[5-(2-Ethyl-phenyl)-4H-[1,2,4]triazol-3-yl]-pyrrolidin-1-yl}-(5-methyl-2-[1,2,3]triazol-2-yl-phenyl)-methanone] | 80 | 652 |  |  |
| COc1cccc(-c2nnc([C@@H]3CCCN3C(=O)c3cc(C)ccc3-n3nccn3)[nH]2)c1 [compound 513, {(S)-2-[5-(3-Methoxy-phenyl)-4H-[1,2,4]triazol-3-yl]-pyrrolidin-1-yl}-(5-methyl-2-[1,2,3]triazol-2-yl-phenyl)-methanone] | 181 | 812 |  |  |
| COc1ccc(-c2nnc([C@@H]3CCCN3C(=O)c3cc(C)ccc3-n3nccn3)[nH]2)cc1 [compound 514, {(S)-2-[5-(4-Methoxy-phenyl)-4H-[1,2,4]triazol-3-yl]-pyrrolidin-1-yl}-(5-methyl-2-[1,2,3]triazol-2-yl-phenyl)-methanone] | 3490 | > 6560 |  |  |
| CCCOc1ccccc1-c1nnc([C@@H]2CCCN2C(=O)c2cc(C)ccc2-n2nccn2)[nH]1 [compound 515, (5-Methyl-2-[1,2,3]triazol-2-yl-phenyl)-{(S)-2-[5-(2-propoxy-phenyl)-4H-[1,2,4]triazol-3-yl]-pyrrolidin-1-yl}-methanone] | 646 | 400 |  |  |
| Cc1ccc(C(=O)N2CCC[C@H]2c2ncc(-c3ccccc3OC(F)(F)F)[nH]2)c(-n2nccn2)c1 [compound 517, (4-Methyl-2-[1,2,3]triazol-2-yl-phenyl)-{(S)-2-[5-(2-trifluoromethoxy-phenyl)-1H-imidazol-2-yl]-pyrrolidin-1-yl}-methanone] | 2 | 6 |  |  |
| CCOc1ccccc1-c1cnc([C@@H]2CCCN2C(=O)c2ccc(C)cc2-n2nccn2)[nH]1 [compound 518, {(S)-2-[5-(2-Ethoxy-phenyl)-1H-imidazol-2-yl]-pyrrolidin-1-yl}-(4-methyl-2-[1,2,3]triazol-2-yl-phenyl)-methanone] | 1 | 2 |  |  |

| SMILES | IC50 (human orexin-2 receptor; [1]) [nM] | IC50 (orexin-1; [2]) [nM] | IC50 (human orexin-2 receptor) [nM] | IC50 (orexin-1) [nM] |
| --- | --- | --- | --- | --- |
| Cc1ccc(-n2nccn2)c(C(=O)N2CCC[C@H]2c2cnc(-c3ccccc3)[nH]2)c1 [compound 519, (5-Methyl-2-[1,2,3]triazol-2-yl-phenyl)-[(S)-2-(2-phenyl-3H-imidazol-4-yl)-pyrrolidin-1-yl]-methanone] | 720 | 1390 |  |  |
| Cc1ccc(-n2nccn2)c(C(=O)N2CCC[C@H]2c2cnc(-c3cccc(Cl)c3C)[nH]2)c1 [compound 521] | 681 | 2510 |  |  |
| Cc1ccc(C(=O)N2CCC[C@H]2c2cnc(-c3cccc(Cl)c3C)[nH]2)c(-n2nccn2)c1 [compound 522] |  |  | 367 | 2110 |
| Cc1ccc(-n2nccn2)c(C(=O)N2CCC[C@H]2c2ncc(-c3cccc(Cl)c3)[nH]2)c1 [compound 523] | 103 | 428 |  |  |
| COc1cccc(-c2cnc([C@@H]3CCCN3C(=O)c3cc(C)ccc3-n3nccn3)[nH]2)c1 [compound 524, {(S)-2-[5-(3-Methoxy-phenyl)-1H-imidazol-2-yl]-pyrrolidin-1-yl}-(5-methyl-2-[1,2,3]triazol-2-yl-phenyl)-methanone] | 45 | 709 |  |  |
| Cc1ccc(-n2nccn2)c(C(=O)N2CCC[C@H]2c2ncc(-c3cccc(Cl)c3C)[nH]2)c1 [compound 525, {(S)-2-[5-(3-Chloro-2-methyl-phenyl)-1H-imidazol-2-yl]-pyrrolidin-1-yl}-(5-methyl-2-[1,2,3]triazol-2-yl-phenyl)-methanone] | 88 | 343 |  |  |
| CCOc1ccccc1-c1cnc([C@@H]2CCCN2C(=O)c2cc(C)ccc2-n2nccn2)[nH]1 [compound 526, {(S)-2-[5-(2-Ethoxy-phenyl)-1H-imidazol-2-yl]-pyrrolidin-1-yl}-(5-methyl-2-[1,2,3]triazol-2-yl-phenyl)-methanone] | 5 | 28 |  |  |
| Cc1ccc(-n2nccn2)c(C(=O)N2CCC[C@H]2c2ncc(-c3ccccc3)[nH]2)c1 [compound 527, (5-Methyl-2-[1,2,3]triazol-2-yl-phenyl)-[(S)-2-(5-phenyl-1H-imidazol-2-yl)-pyrrolidin-1-yl]-methanone] | 109 | 389 |  |  |
| Cc1ccc(-n2nccn2)c(C(=O)N2CCC[C@H]2c2ncc(-c3ccccc3C(F)(F)F)[nH]2)c1 [compound 528, (5-Methyl-2-[1,2,3]triazol-2-yl-phenyl)-{(S)-2-[5-(2-trifluoromethyl-phenyl)-1H-imidazol-2-yl]-pyrrolidin-1-yl}-methanone] | 117 | 493 |  |  |
| Cc1ccc(-n2nccn2)c(C(=O)N2CCC[C@H]2c2ncc(-c3ccccc3OC(F)(F)F)[nH]2)c1 [compound 529, (5-Methyl-2-[1,2,3]triazol-2-yl-phenyl)-{(S)-2-[5-(2-trifluoromethoxy-phenyl)-1H-imidazol-2-yl]-pyrrolidin-1-yl}-methanone] | 2 | 10 |  |  |
| Cc1ccc(C(=O)N2CCC[C@H]2c2cc(-c3cccc(Cl)c3C)n[nH]2)c(-n2nccn2)c1 [compound 531] | 57 |  |  | 255 |
| Cc1ccc(-n2nccn2)c(C(=O)N2CCC[C@H]2c2cc(-c3ccccc3OC(F)(F)F)n[nH]2)c1 [compound 532, (5-Methyl-2-[1,2,3]triazol-2-yl-phenyl)-{(S)-2-[5-(2-trifluoromethoxy-phenyl)-2H-pyrazol-3-yl]-pyrrolidin-1-yl}-methanone] | 146 | 286 |  |  |
| Cc1ccc(C(=O)N2CCC[C@H]2c2cc(-c3ccccc3OC(F)(F)F)n[nH]2)c(-n2nccn2)c1 [compound 533, (4-Methyl-2-[1,2,3]triazol-2-yl-phenyl)-{(S)-2-[5-(2-trifluoromethoxy-phenyl)-2H-pyrazol-3-yl]-pyrrolidin-1-yl}-methanone] | 81 | 258 |  |  |
| Cc1ccc(-n2nccn2)c(C(=O)N2CCC[C@H]2c2cc(-c3cccc(Cl)c3C)n[nH]2)c1 [compound 534] | 53 | 410 |  |  |
| C[C@@]1(c2nc(-c3ccccc3)no2)CCCN1C(=O)c1ncsc1-c1cccc(Cl)c1 [compound 538] | 2810 | 941 |  |  |
| Cc1cccc(-c2ocnc2C(=O)N2CCC[C@@]2(C)c2nc(-c3ccccc3)no2)c1 [compound 539, [(S)-2-Methyl-2-(3-phenyl-[1,2,4]oxadiazol-5-yl)-pyrrolidin-1-yl]-(5-m-tolyl-oxazol-4-yl)-methanone] | 1780 | 560 |  |  |
